{"source": "paper PMC11741003", "about": "(ACS Chemical Neuroscience, 2024)", "key": {"[1]": {"tested_on": "rat brain microvascular endothelial cells (RBMECs)", "assay": "Transendothelial electrical resistance (TEER) in the BBB in vitro model", "type": "cell-based", "conditions": "RBMEC monolayers"}, "[2]": {"assay": "BBB in vitro model: primary culture of rat brain microvascular endothelial cells (RBMECs) on inserts, astrocyte-conditioned medium in the basal compartment", "conditions": "Wistar rat, up to 25 h"}, "Aβ(1–16)": {"tested_on": "Aβ(1–16)", "conditions": "1 equiv of TP; EPR; cited from earlier work", "source_text": "Although Aβ(1–X) species are the most studied, N-truncated Aβ peptides, such as Aβ(4–X) species (Figure 4A), are highly abundant Aβ isoforms detected in both healthy and AD brains.[58]−[60] Although both peptides bind Cu^2+, their coordination properties and reactivities are completely different."}, "[3]": {"tested_on": "rat brain microvascular endothelial cells (RBMECs)", "assay": "Peptide recovery (HPLC) from apical and basal compartments of the BBB in vitro model", "conditions": "peptide alone, apical administration; quantified after 8 and 25 h; HPLC-UV"}, "[4]": {"tested_on": "rat brain microvascular endothelial cells (RBMECs)"}, "PrP(106–115)": {"target": "PrP(106–115) (Homo sapiens, UniProt P04156)", "conditions": "pH 7.4"}, "Aβ(1–40)": {"target": "T1, Aβ(1–40) (Homo sapiens, UniProt P05067)", "T1 construct": "impact the mechanism of Cu^2+-induced aggregation of Aβ(1–40)", "T1 sequence (P05067 672-711 limits assumed)": "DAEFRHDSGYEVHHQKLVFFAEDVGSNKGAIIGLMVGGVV", "conditions": "cited from earlier work", "source_text": "Scheme 1 TP Holds Therapeutic Potential against AD TP is a tetrapeptide with the sequence MDDWAib. The MD sequence binds Cu^2+ with high affinity (A). […] These findings support a therapeu ..."}, "PrP(92–99)": {"target": "PrP(92–99) (Homo sapiens, UniProt P04156)", "conditions": "pH 7.4"}}, "note": "Residues, ends and D or L forms follow the SMILES beside them."}
{"molecule": "CC(C)C[C@H](NC(=O)[C@@H](N)CCCCN)C(=O)N[C@@H](Cc1ccc(O)cc1)C(=O)O", "note": "[P10] (H-Lys-Leu-Tyr-OH)", "values": [{"measurement": "Decrease of TEER with respect to control monolayers", "setting": "[1]; P10 alone, CellZscope continuous measurement", "value": "approximately 30%"}, {"measurement": "Decrease of TEER with respect to control monolayers", "setting": "[1]; P10 together with TP", "value": "approximately 30%"}]}
{"molecule": "NH2-MDDWAib-Am", "values": [{"measurement": "cleaved bond", "setting": "[2]", "value": "Met1-Asp2, major, 3.5 h"}]}
{"molecule": "NH2-MDDWAib-Am [TP]", "values": [{"measurement": "Removal of Cu2+ from Cu2+-Aβ(1–16)", "setting": "Aβ(1–16)", "value": "removes the metal ion"}, {"measurement": "Detection in apical and basal compartments", "setting": "[3]", "value": "detected in the apical but not in the basal compartment"}, {"measurement": "Main degradation product in the BBB model", "setting": "[4]", "value": "DDWAib"}, {"measurement": "TP degradation in the BBB model", "setting": "[4]", "value": "rapidly degraded"}, {"measurement": "TP passage across the BBB model", "setting": "[4]", "value": "cannot cross the BBB without P10"}, {"measurement": "Fraction of Cu2+-PrP(106–115) complex in EPR deconvolution", "setting": "PrP(106–115); 1 equiv of TP", "value": 30, "unit": "%"}, {"measurement": "Fraction of Cu2+-TP complex in EPR deconvolution", "setting": "PrP(106–115); 1 equiv of TP", "value": 50, "unit": "%"}, {"measurement": "Fraction of ternary TP-Cu2+-PrP(106–115) complex in EPR deconvolution", "setting": "PrP(106–115); 1 equiv of TP", "value": 20, "unit": "%"}, {"measurement": "Fraction of Cu2+-TP in EPR simulation", "setting": "PrP(106–115); 2 equiv of TP", "value": 40, "unit": "%"}, {"measurement": "Fraction of ternary TP-Cu2+-PrP(106–115) complex in EPR simulation", "setting": "PrP(106–115); 2 equiv of TP", "value": 60, "unit": "%"}, {"measurement": "Effect on Cu2+-induced aggregation of Aβ(1–40)", "setting": "Aβ(1–40)", "value": "impacts the Cu^2+-induced aggregation of Aβ(1–40)"}, {"measurement": "Fraction of Cu2+-PrP(92–99) complex in EPR deconvolution", "setting": "PrP(92–99); 1 equiv of TP", "value": 40, "unit": "%"}, {"measurement": "Fraction of Cu2+-TP complex in EPR deconvolution", "setting": "PrP(92–99); 1 equiv of TP", "value": 30, "unit": "%"}, {"measurement": "Fraction of ternary TP-Cu2+-PrP(92–99) complex in EPR deconvolution", "setting": "PrP(92–99); 1 equiv of TP", "value": 30, "unit": "%"}, {"measurement": "Fraction of Cu2+-TP in EPR simulation", "setting": "PrP(92–99); 2 equiv of TP", "value": 20, "unit": "%"}, {"measurement": "Fraction of ternary TP-Cu2+-PrP(92–99) complex in EPR simulation", "setting": "PrP(92–99); 2 equiv of TP", "value": 80, "unit": "%"}, {"measurement": "Effect on TEER", "setting": "[1]; TP alone", "value": "no effect"}]}
